Earlier results in patent US20070264370A1, “Composition and methods for the treatment of joint pain using Angelica gigas Nakai extract and powder as combined with Glucosamine Sulfate, or Chondroitin Sulfate and HCL, or MSM, or aspirin, or Celedrin, and as combinations thereof in powder, pill, capsule, spray, liquid, and gelcap form” (priority 2006, published 2007).

Details: in mammal; oral administration in rats (Kim et al. 2003)

elimination half life (T1/2): about 3 hours
Compound: CC1(C)Oc2cc3oc(=O)ccc3cc2C[C@@H]1O [decursinol, Decursinol]
